{
  "source": "patent US12029740B2",
  "about": "(NANOCOPOEIA, LLC, priority 2020, dated 2024)",
  "origin": "cited, not measured here",
  "key": {"[1]": {"conditions": "low/moderate aqueous solubility and low permeability"}},
  "note": "Where a name gives a salt, the structure may show the parent alone.",
  "data": [
    {"smiles": "Cc1cn(-c2cc(NC(=O)c3ccc(C)c(Nc4nccc(-c5cccnc5)n4)c3)cc(C(F)(F)F)c2)cn1", "note": "[nilotinib, 4-methyl-N-[3-(4-methyl-1H-imidazol-1-yl)-5-(trifluoromethyl)phenyl]-3-[[4-(3-pyridinyl)-2-pyrimidinyl]amino]-benzamide]", "values": [
      {"measurement": "solubility with increasing pH", "result": "significantly decreases"}
    ]},
    {"smiles": "Cc1cn(-c2cc(NC(=O)c3ccc(C)c(Nc4nccc(-c5cccnc5)n4)c3)cc(C(F)(F)F)c2)cn1", "note": "[Nilotinib monohydrochloride monohydrate]", "values": [
      {"measurement": "Biopharmaceutical Classification System (BCS) class", "setting": "[1]", "result": "Class IV"}
    ]}
  ]
}
